According to patent US8840866B2, “Styrylpyridine derivatives and their use for binding and imaging amyloid plaques” (The Trustees of the University of Pennsylvania, priority 2006, dated 2014):

Assay: Organ distribution in normal ICR mice after iv injection of radiolabeled tracer
Type: in vivo
Conditions: [125I]-labeled tracer
Method: The mice (n=3 for each time point) were sacrificed by cervical dislocation at designated time-points post injection. The organs of interest were removed and weighed, and the radioactivity was counted with an automatic gamma counter. The percentage dose per organ was calculated by a comparison of the tissue counts to suitably diluted aliquots of the injected material. The total activity of the blood was calculated under the assumption that it is 7% of the total body weight. The % dose/g of samples was calculated by comparing the sample counts with the count of the diluted initial dose.

CN(C)c1ccc(/C=C/c2cnc(OCCOCCOCCF)c(I)c2)cc1 [[^125I]13a, (E)-(5-Iodo-6-{2-[2-(2-fluoroethoxy)ethoxy]ethoxy}pyridin-3-yl)-2-(4-dimethylaminophenyl)-ethylene]
Biodistribution: Blood (2 min): 2.70 ± 0.58 % dose/g
Biodistribution: Brain (2 min): 4.03 ± 0.43 % dose/g
Biodistribution: Heart (2 min): 12.76 ± 1.24 % dose/g
Biodistribution: Kidney (2 min): 16.62 ± 1.96 % dose/g
Biodistribution: Liver (2 min): 22.15 ± 4.34 % dose/g
Biodistribution: Lung (2 min): 10.08 ± 2.15 % dose/g
Biodistribution: Muscle (2 min): 0.90 ± 0.20 % dose/g
Biodistribution: Skin (2 min): 0.54 ± 0.05 % dose/g
Biodistribution: Spleen (2 min): 4.47 ± 1.28 % dose/g
Biodistribution: Thyroid (2 min): 3.89 ± 0.67 % dose/g
Biodistribution: Blood (30 min): 2.05 ± 0.18 % dose/g
Biodistribution: Brain (30 min): 1.93 ± 0.18 % dose/g
Biodistribution: Heart (30 min): 1.63 ± 0.03 % dose/g
Biodistribution: Kidney (30 min): 3.32 ± 0.11 % dose/g
Biodistribution: Liver (30 min): 9.54 ± 1.30 % dose/g
Biodistribution: Lung (30 min): 2.50 ± 0.14 % dose/g
Biodistribution: Muscle (30 min): 1.00 ± 0.08 % dose/g
Biodistribution: Skin (30 min): 1.47 ± 0.26 % dose/g
Biodistribution: Spleen (30 min): 1.42 ± 0.05 % dose/g
Biodistribution: Thyroid (30 min): 16.23 ± 11.75 % dose/g
Biodistribution: Blood (1 hr): 1.65 ± 0.45 % dose/g
Biodistribution: Brain (1 hr): 0.68 ± 0.17 % dose/g
Biodistribution: Heart (1 hr): 0.97 ± 0.16 % dose/g
Biodistribution: Kidney (1 hr): 2.30 ± 0.54 % dose/g
Biodistribution: Liver (1 hr): 5.34 ± 2.22 % dose/g
Biodistribution: Lung (1 hr): 1.62 ± 0.46 % dose/g
Biodistribution: Muscle (1 hr): 0.59 ± 0.13 % dose/g
Biodistribution: Skin (1 hr): 1.59 ± 0.68 % dose/g
Biodistribution: Spleen (1 hr): 0.99 ± 0.47 % dose/g
Biodistribution: Thyroid (1 hr): 24.19 ± 8.26 % dose/g
Biodistribution: Blood (2 hr): 1.45 ± 0.41 % dose/g
Biodistribution: Brain (2 hr): 0.26 ± 0.04 % dose/g
Biodistribution: Heart (2 hr): 0.73 ± 0.17 % dose/g
Biodistribution: Kidney (2 hr): 1.71 ± 0.24 % dose/g
Biodistribution: Liver (2 hr): 5.62 ± 1.31 % dose/g
Biodistribution: Lung (2 hr): 1.33 ± 0.39 % dose/g
Biodistribution: Muscle (2 hr): 0.53 ± 0.08 % dose/g
Biodistribution: Skin (2 hr): 1.23 ± 0.41 % dose/g
Biodistribution: Spleen (2 hr): 0.79 ± 0.27 % dose/g
Biodistribution: Thyroid (2 hr): 60.76 ± 6.09 % dose/g

CNc1ccc(/C=C/c2cnc(OCCOCCOCCF)c(I)c2)cc1 [[^125I]13b, (E)-(5-Iodo-6-{2-[2-(2-fluoroethoxy)ethoxy]ethoxy}pyridin-3-yl)-2-(4-methylaminophenyl)-ethylene]
Biodistribution: Blood (2 min): 4.37 ± 1.07 % dose/g
Biodistribution: Brain (2 min): 6.22 ± 1.01 % dose/g
Biodistribution: Heart (2 min): 9.85 ± 1.78 % dose/g
Biodistribution: Kidney (2 min): 9.03 ± 6.81 % dose/g
Biodistribution: Liver (2 min): 26.24 ± 4.47 % dose/g
Biodistribution: Lung (2 min): 6.85 ± 0.27 % dose/g
Biodistribution: Muscle (2 min): 1.04 ± 0.25 % dose/g
Biodistribution: Skin (2 min): 1.48 ± 0.07 % dose/g
Biodistribution: Spleen (2 min): 4.41 ± 1.05 % dose/g
Biodistribution: Thyroid (2 min): 5.74 ± 0.42 % dose/g
Biodistribution: Blood (30 min): 3.83 ± 1.11 % dose/g
Biodistribution: Brain (30 min): 1.23 ± 0.13 % dose/g
Biodistribution: Heart (30 min): 2.54 ± 0.37 % dose/g
Biodistribution: Kidney (30 min): 3.40 ± 0.76 % dose/g
Biodistribution: Liver (30 min): 11.47 ± 2.10 % dose/g
Biodistribution: Lung (30 min): 3.01 ± 0.96 % dose/g
Biodistribution: Muscle (30 min): 1.11 ± 0.34 % dose/g
Biodistribution: Skin (30 min): 2.95 ± 0.81 % dose/g
Biodistribution: Spleen (30 min): 2.49 ± 0.75 % dose/g
Biodistribution: Thyroid (30 min): 24.09 ± 27.44 % dose/g
Biodistribution: Blood (1 hr): 2.88 ± 0.28 % dose/g
Biodistribution: Brain (1 hr): 0.62 ± 0.17 % dose/g
Biodistribution: Heart (1 hr): 1.75 ± 0.26 % dose/g
Biodistribution: Kidney (1 hr): 2.81 ± 0.70 % dose/g
Biodistribution: Liver (1 hr): 7.70 ± 1.22 % dose/g
Biodistribution: Lung (1 hr): 2.37 ± 0.29 % dose/g
Biodistribution: Muscle (1 hr): 0.85 ± 0.06 % dose/g
Biodistribution: Skin (1 hr): 2.46 ± 0.16 % dose/g
Biodistribution: Spleen (1 hr): 1.75 ± 0.33 % dose/g
Biodistribution: Thyroid (1 hr): 38.09 ± 6.37 % dose/g
Biodistribution: Blood (2 hr): 2.21 ± 0.73 % dose/g
Biodistribution: Brain (2 hr): 0.26 ± 0.01 % dose/g
Biodistribution: Heart (2 hr): 1.22 ± 0.28 % dose/g
Biodistribution: Kidney (2 hr): 1.86 ± 0.36 % dose/g
Biodistribution: Liver (2 hr): 6.25 ± 1.79 % dose/g
Biodistribution: Lung (2 hr): 1.85 ± 0.74 % dose/g
Biodistribution: Muscle (2 hr): 0.44 ± 0.19 % dose/g
Biodistribution: Skin (2 hr): 1.32 ± 0.41 % dose/g
Biodistribution: Spleen (2 hr): 1.27 ± 0.24 % dose/g
Biodistribution: Thyroid (2 hr): 215.05 ± 74.59 % dose/g
